In patent US11420970B1 (NOVARTIS AG, priority 2019, dated 2022):
Like-named read-outs stand apart in the source and are kept apart here.

Assays:
[1] = tested on: cellular H3K36me2 level in multiple myeloma cell line KMS11 (t(4;14)+); assay: H3K36me2 cellular ELISA assay in KMS11-Par line; format: cell-based; settings: Homo sapiens, KMS-11, ELISA, read-out: H3K36me2 ELISA in KMS11-Par
Procedure: H3K36Me2 Cellular ELISA Assay in KMS11-Par Line
An ELISA (enzyme-linked immunosorbent assay) based assay was used to test the ability of candidate compound to reduce cellular H3K36me2 level in multiple myeloma cell line KMS11 (t(4;14)+). KMS11 (Horizon Discovery Ltd.) cells are maintained in RPM11640 media with 12.5% FBS and 50 U/ml Penicillin-Streptomycin. For assay compound treatment, single cell suspension was prepared in Opti-MEM supplemented with B-27 and N2 supplement (Invitrogen 11058-021, 17504-044, 17502-048) for ELISA and in maintenance media for cellTiter Glo (CTG) viability assay. One day prior to cell treatment, 1,250 KMS11 cells were seeded into 384-well Greiner CellStar TC plate (Greiner #781086) at the final volume of 30 μL/well.
Cells were treated with tested compounds at the desired concentration for 72 hours. Crude histone lysate was extracted by 0.4M HCl following neutralization by 0.5M Sodium phosphate, dibasic (Na2HPO4), pH ˜12.5. Equal amount of histone lysate was loaded to Corning 384-well high biding plate (Corning #3577, black) for H3K36m2 and to Thermo 384-well high binding Nunc plate (Thermo #460372, white) for total H3.
Histone bound plates were washed and blocked with 5% BSA. […] The abundance of H3K36me2 and total H3 was measured by Chemiluminesce on a plate reader. Cell viability was monitored on a parallel seeded plate with CellTiter-Glo reagent (Promega #G7573).

NSD2 [1-1365] = NSD2 [1-1365] (Homo sapiens (Human), UniProt O96028); assay: LC-MS/MS-based NSD2 enzymatic assay (SAH production); format: biochemical; settings: read-out: NSD2 IC50
In short: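 SAH formed was measured by LC-MS/MS using d4-SAH as internal standard and an SAH calibration curve. Compounds were preincubated 20 min with NSD2 [1-1365] and SAM; mouse-liver nucleosome then started a 90 min room-temperature reaction (8 nM enzyme, 1 μM SAM, 400 nM nucleosome final, pH 8.0), stopped with TFA.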

[2] = KMS11-Par line (t(4;14)+), 72 hours treatment
[3] = NSD2 biochemical activity, class symbols

Sequence of NSD2 [1-1365] (O96028 whole entry): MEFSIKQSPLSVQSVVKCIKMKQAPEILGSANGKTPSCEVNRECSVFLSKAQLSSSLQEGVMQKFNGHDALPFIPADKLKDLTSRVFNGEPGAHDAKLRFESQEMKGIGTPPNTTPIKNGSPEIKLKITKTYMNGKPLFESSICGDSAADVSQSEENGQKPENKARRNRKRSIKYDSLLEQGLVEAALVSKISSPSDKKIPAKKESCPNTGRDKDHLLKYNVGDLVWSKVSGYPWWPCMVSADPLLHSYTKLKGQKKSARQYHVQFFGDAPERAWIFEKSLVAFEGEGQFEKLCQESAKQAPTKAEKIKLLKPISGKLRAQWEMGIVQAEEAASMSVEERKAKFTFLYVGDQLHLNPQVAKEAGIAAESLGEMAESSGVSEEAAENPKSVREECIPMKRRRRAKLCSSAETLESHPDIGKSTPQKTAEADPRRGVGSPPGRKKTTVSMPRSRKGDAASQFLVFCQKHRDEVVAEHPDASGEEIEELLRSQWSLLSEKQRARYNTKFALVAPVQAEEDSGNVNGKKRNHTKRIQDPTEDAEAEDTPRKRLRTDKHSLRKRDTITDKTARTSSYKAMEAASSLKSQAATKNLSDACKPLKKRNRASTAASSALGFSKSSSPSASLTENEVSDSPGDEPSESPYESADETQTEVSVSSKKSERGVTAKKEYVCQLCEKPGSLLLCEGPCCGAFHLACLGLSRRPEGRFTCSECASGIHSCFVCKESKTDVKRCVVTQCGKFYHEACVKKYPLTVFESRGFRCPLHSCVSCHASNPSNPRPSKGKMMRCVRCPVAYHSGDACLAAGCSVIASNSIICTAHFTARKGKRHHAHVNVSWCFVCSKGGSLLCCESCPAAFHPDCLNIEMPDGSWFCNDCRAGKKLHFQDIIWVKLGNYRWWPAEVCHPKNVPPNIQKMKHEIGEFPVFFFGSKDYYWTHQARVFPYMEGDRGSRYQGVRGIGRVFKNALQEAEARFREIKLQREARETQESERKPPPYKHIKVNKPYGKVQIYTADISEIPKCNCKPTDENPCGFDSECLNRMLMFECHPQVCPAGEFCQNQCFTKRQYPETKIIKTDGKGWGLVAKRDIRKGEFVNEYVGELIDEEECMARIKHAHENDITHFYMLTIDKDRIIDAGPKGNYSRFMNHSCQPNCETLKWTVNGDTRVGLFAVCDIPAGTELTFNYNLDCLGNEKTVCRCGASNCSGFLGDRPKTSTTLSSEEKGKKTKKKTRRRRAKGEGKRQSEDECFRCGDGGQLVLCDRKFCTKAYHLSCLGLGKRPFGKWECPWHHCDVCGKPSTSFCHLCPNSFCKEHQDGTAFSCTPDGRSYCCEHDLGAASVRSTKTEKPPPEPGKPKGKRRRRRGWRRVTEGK

SMILES	IC50 ([1]; KMS11-Par line, 72 hours)	IC50 (NSD2 [1-1365])	IC50 [1, 2]	IC50 (NSD2 [1-1365]; [3])
Nc1nccc2c1ncn2Cc1cc(-c2ccc(F)c(F)c2)ncc1N1CCC[C@](N)(c2cccc(C(F)F)n2)C1 [Example 260, (R)-1-((5-(3-amino-3-(6-(difluoromethyl)pyridin-2-yl)piperidin-1-yl)-2-(3,4-difluorophenyl)pyridin-4-yl)methyl)-1H-imidazo[4,5-c]pyridin-4-amine]	1.52 µM	0.01 to 1 µM	–	–
Nc1ncnc2c1ncn2Cc1cc(-c2ccc(F)c(F)c2)ncc1N1CCCC(N)(c2cncc(Cl)n2)C1 (stereo not shown) [Example 254, 9-((5-(3-amino-3-(6-chloropyrazin-2-yl)piperidin-1-yl)-2-(3,4-difluorophenyl)pyridin-4-yl)methyl)-9H-purin-6-amine]	1.54 µM	0.01 to 1 µM	–	–
Cn1ccc(C[C@@]2(N)CCCN(c3cnc(-c4ccc(F)cc4)cc3Cn3cnc4c(N)nccc43)C2)n1 [Example 49, (S)-1-((5-(3-amino-3-((1-methyl-1H-pyrazol-3-yl)methyl)piperidin-1-yl)-2-(4-fluorophenyl)pyridin-4-yl)methyl)-1H-imidazo[4,5-c]pyridin-4-amine]	–	–	12.7 µM	0.001 to 0.01 µM
Nc1ncnc2c1ncn2Cc1cc(-c2ccc(F)c(F)c2)ncc1N1CCC[C@](N)(c2ccncc2F)C1 [Example 248, (S)-9-((5-(3-amino-3-(3-fluoropyridin-4-yl)piperidin-1-yl)-2-(3,4-difluorophenyl)pyridin-4-yl)methyl)-9H-purin-6-amine]	2.88 µM	0.01 to 1 µM	–	–
Nc1nccc2c1ncn2Cc1cc(C2CCC2)ncc1N1CCCC(N)(c2cccc(Cl)n2)C1 (stereo not shown) [Example 267, 1-((5-(3-amino-3-(6-chloropyridin-2-yl)piperidin-1-yl)-2-cyclobutylpyridin-4-yl)methyl)-1H-imidazo[4,5-c]pyridin-4-amine]	1.91 µM	0.01 to 1 µM	–	–
COc1ccc(-c2cc(Cn3cnc4c(N)nccc43)c(N3CCC[C@](N)(Cc4ccccn4)C3)cn2)cc1F [Example 50, (S)-1-((5-(3-amino-3-(pyridin-2-ylmethyl)piperidin-1-yl)-2-(3-fluoro-4-methoxyphenyl)pyridin-4-yl)methyl)-1H-imidazo[4,5-c]pyridin-4-amine]	–	–	0.895 µM	0.001 to 0.01 µM
Nc1ncnc2c1ncn2Cc1cc(-c2ccc(F)c(F)c2)ncc1N1CCCC(N)(c2cnccn2)C1 (stereo not shown) [Example 259, 9-((5-(3-amino-3-(pyrazin-2-yl)piperidin-1-yl)-2-(3,4-difluorophenyl)pyridin-4-yl)methyl)-9H-purin-6-amine]	3.54 µM	0.01 to 1 µM	–	–

The remaining lines, values ahead:

IC50 ([1]; KMS11-Par line, 72 hours)	IC50 (NSD2 [1-1365])	IC50 [1, 2]	IC50 (NSD2 [1-1365]; [3])	SMILES
9.44 µM	0.01 to 1 µM	–	–	Nc1ncnc2c1ncn2Cc1cc(-c2ccc(F)c(F)c2)ncc1N1CCCC(N)(C=C(F)F)C1 (stereo not shown) [Example 294, 9-((5-(3-amino-3-(2,2-difluorovinyl)piperidin-1-yl)-2-(3,4-difluorophenyl)pyridin-4-yl)methyl)-9H-purin-6-amine]
> 33.7 µM	0.01 to 1 µM	–	–	CN(C)C(=O)CC[C@@]1(N)CCCN(c2cnc(-c3ccc(F)c(F)c3)cc2Cn2cnc3c(N)ncnc32)C1 [Example 322, (S)-3-(3-amino-1-(4-((6-amino-9H-purin-9-yl)methyl)-6-(3,4-difluorophenyl)pyridin-3-yl)piperidin-3-yl)-N,N-dimethylpropanamide]
5.68 µM	0.001 to 0.01 µM	–	–	Cn1cc([C@@]2(N)CCCN(c3cnc(-c4ccc(F)c(F)c4)cc3Cn3cnc4c(N)ncnc43)C2)cn1 [Example 269, (S)-9-((5-(3-amino-3-(1-methyl-1H-pyrazol-4-yl)piperidin-1-yl)-2-(3,4-difluorophenyl)pyridin-4-yl)methyl)-9H-purin-6-amine]
0.475 µM	0.001 to 0.01 µM	–	–	Nc1ncnc2c1ncn2Cc1cc(-c2ccc(F)c(F)c2)ncc1N1CCCC(N)(c2ccn(C3CC3)n2)C1 (stereo not shown) [Example 278, 9-((5-(3-amino-3-(1-cyclopropyl-1H-pyrazol-3-yl)piperidin-1-yl)-2-(3,4-difluorophenyl)pyridin-4-yl)methyl)-9H-purin-6-amine]
